# Tested on: COX-1/2 (mixed COX-1 and COX-2)
# Assay: COX
# Format: biochemical, ovine/human
# Conditions: read-out: IC50 against COX-1/2; suggested from ~37% inhibition at 100 µM
smiles,measurement,value
COc1ccc(N(Nc2ccc(Br)cc2)c2ccccc2N(Nc2ccc(Br)cc2)c2ccccc2OC)cc1 [Compound 6],IC50,> 100 µM

# Source: PMC5586502 (Bioorganic & medicinal chemistry letters, 2017)
